Legend:
[1] = test system: cord blood mononuclear cells (MNC); assay: FACS analysis of reselected CD34+ cell subsets (CD34+CD38-, CD34+Lin-) from MNC cultures; assay type: cell-based, human; conditions: for CD34+Lin- cells by FACS from reselected CD34+ cell fraction: MNC with RAR antagonists and cytokines; for cumulative number of CD34+CD38- cells: cytokines
Description: Surface antigen analysis: Cells were harvested, washed with a PBS solution containing 1% bovine sera albumin (BSA) and 0.1% sodium azide (Sigma), ind stained at 4° C. for 60 minutes with fluorescein isothiocyanate or phycoerythrin-conjugated antibodies (all from Immunoquality Products, the Netherlands). The cells were then washed with the same buffer and analyzed by FACS caliber or Facstarplus flow cytometers. Cells were passed at a rate of 1000 cells/second, using saline as the sheath fluid. A 488 nm argon laser beam served as the light source for excitation. Emission of ten thousand cells was measured using logarithmic amplification, and analyzed using CellQuest software.
Reselected CD34+ cell subsets were stained for the following combination of antigens: CD34PE/CD38FITC and CD34PE/38-, 33-, 14-, 15-, 3, 4, 61, 19 (Lin) FITC.
FACS analysis results are given as percentage values of cells. Absolute numbers of subsets are calculated from the absolute number of CD34+ cells.
Determination of baseline levels of CD34^+/CD38− and CD34^+/Lin^− cells was conducted as follows: CD34+ cells were purified from 3 thawed cord blood units and stained for the above markers. The mean of these experiments was considered as the baseline value.
(§1) Total cell counts, numbers of CD34+ cells and subsets, and CFU numbers are presented as cumulative numbers, with the assumption that the cultures had not been passaged; i.e., the number of cells per ml were multiplied by the number of passages performed.

[2] = test system: cord blood mononuclear cells (MNC); assay: Ex-vivo expansion of CD34+ cells in mononuclear cell (MNC) cultures; CD34+ cells reselected and counted; assay type: cell-based, human; conditions: for cumulative number of CD34+ cells per culture bag: cytokines, eight weeks incubation; for Number of CD34+ cells (×10^4) / Portion of CD34+ cells (%): 8 weeks
[3] = test system: cord blood mononuclear cells (MNC); assay: Colony forming unit (CFU) ability of MNC cultures; assay type: cell-based, human; conditions: MNC culture, cytokines, TEPA 5-10 μM for first three weeks
Description: as §1
Assaying Colony Forming Unit (CFU) ability: Cells were cloned in semi-solid, methylcellulose-containing medium supplemented with 2 IU/ml erythropoietin (Eprex, Cilag AG Int., Switzerland), stem cell factor and IL-3, both at 20 ng/ml, and G-CSF and GM-CSF, both at 10 ng/ml (all from Perpo Tech). Cultures were incubated for 14 days at 37° C., 5% CO2 in a humidified atmosphere.
Determination of LTC-CFUc values: The ability of the cultures to maintain self-renewal was measured by determination of the content of colony forming unit cells in the long and extended long-term cultures (LTC-CFUc), as described in the references hereinabove.

[4] = test system: CD34+ cell cultures; conditions: early acting cytokines, 5-10 μM TEPA (b8), atomic absorption; cited from earlier work
[5] = test system: cord blood mononuclear cells (MNC); assay: Ex-vivo expansion of CD34+ cells in mononuclear cell (MNC) cultures; CD34+ cells reselected and counted; assay type: cell-based, human; conditions: for cumulative number of CD34+ cells: MNC culture, cytokines, TEPA 5-10 μM for first three weeks
Description: Sample collection and processing: Samples were obtained from umbilical cord blood after a normal full-term delivery and were frozen within 24 hours pospartum. The blood cells were thawed in Dextran buffer and incubated for 15 hours in MEM (Biological Industries, Israel) supplemented with 10% fetal calf serum (FCS; Biological Industries). The cells were then layered on Ficoll-Hypaque (density 1.077 gram/ml; Sigma) and centrifuged at 400 g for 30 minutes at room temperature. The mononuclear cells in the interface layer were then collected, washed three times in phosphate-buffered saline (PBS; Biological Industries), and re-suspended in PBS containing 0.5% human serum albumin (HSA). The cells were then split into two fractions, the first being the mononuclear cells (MNC) fraction and the second fraction was used for purifying CD34^+ cells by immunomagnetic separation using the “MiniMACS CD34^+ progenitor cell isolation kit” (Miltenyi Biotec, Auburn, Calif.) according to the manufacturer's recommendations. The purity of the CD34^+ cells obtained ranged between 95% and 98%, based on Flow Cytometry evaluation.
Ex-vivo expansion of hematopoietic stem cells: The Mononuclear cells (MNC), obtained as described hereinabove, were plated in 24-well Costar Cell Clusters (Corning Inc., Corning, N. Y.) or seeded in Culture Bags (American Fluoroseal Corp.), with alpha minimal essential medium (a-MEM) supplemented with 10% fetal bovine serum (FBS, Biological Industries), at a concentration of about 10^6 cells/ml. […]
Determination of CD34+ cells and subsets: CD34+ surface expression on short and long-term cultures initiated either with purified CD34+ cells or the entire MNC fraction was determined as follows: CD34+ cells were positively reselected (Miltenyi kit) and counted. […]
Mononuclear cells (MNC) were seeded in culture bags and were provided with nutrients and cytokines (50 ng/ml FLt3, IL-6, TPO and SCF) as described above. […] The cultures were analyzed weekly during a 12-week period for the number of cells, CFUc, CD34+ and CD34+CD38− cells. […]

[6] = test system: cord blood mononuclear cells (MNC); assay: Morphological assessment of long-term MNC cultures (May-Grunwald/Giemsa); assay type: cell-based, human; conditions: long-term TEPA-treated MNC cultures
Excerpt: Morphological assessment: Morphological characterization of the resulting culture populations was accomplished on aliquots of cells deposited on glass slides via cytospin (Cytocentrifuge, Shandon, Runcorn, UK). Cells were fixed, stained with May-Grunwald/Giemsa stain and examined microscopically.

[7] = cytokines + RAR antagonist 10^-6 M, 2 weeks
[8] = cytokines + RAR antagonist 10^-6 M, 5 weeks

## CCc1ccc(C2=CC(C)(C)Sc3ccc(C#Cc4ccc(C(=O)O)cc4)cc32)cc1 [RAR antagonist]
[1]; 2 weeks after initial seeding
  CD34+Lin- cells by FACS from reselected CD34+ cell fraction: 78%
[1]; 5 weeks after initial seeding
  CD34+Lin- cells by FACS from reselected CD34+ cell fraction: 24%
[1]; [7]
  % CD34/Lin-: 78.4%
  No of CD34+/Lin- × 10^4: 132.5 × 10^4
[1]; [8]
  % CD34/Lin-: 24.1%
  No of CD34+/Lin- × 10^4*: 237.8 × 10^4
[2]; [7]
  No of CD34 cells × 10^4: 169 × 10^4
[2]; [8]
  No of CD34 cells × 10^4*: 985 × 10^4

## NCCNCCNCCNCCN [TEPA, tetraethylenepentamine]
[3]; after 2 weeks
  number of CD34+ CFUs: non-detectable
[3]; after 10 weeks
  number of CD34+ CFUs: 3.2×10^7 cells/ml
[1]; MNC culture, TEPA 5-10 μM for first three weeks, after 2 weeks
  cumulative number of CD34+CD38- cells: non-detectable
[1]; MNC culture, TEPA 5-10 μM for first three weeks, after 12 weeks
  cumulative number of CD34+CD38- cells: 2.5×10^7 cells/ml
[4]
  reduction of cell copper content: 30%
[5]; after 2 weeks
  cumulative number of CD34+ cells: non-detectable
[5]; after 12 weeks
  cumulative number of CD34+ cells: over 8×10^7 cells/ml
[5]; TEPA-treated MNC cultures, 12-week period
  stem and progenitor cells densities versus pre-purified CD34+ cell cultures (not treated with TEPA): either equalized or surpassed
[6]
  morphological analysis of cells from long-term cultures: a high proportion of non-differentiated cells

## tetraethylenepentamine-copper chelate [Cu-TEPA chelate]
[1]; 100 μM Copper-TEPA for first three weeks, eight weeks incubation
  cumulative number of CD34+CD38- cells: 6.1×10^5
[1]; Cu-TEPA chelate 100 μM, 8 weeks
  Number of CD34/38- cells (×10^4): 61 ×10^4
[2]; 50 μM Copper-TEPA for first three weeks
  cumulative number of CD34+ cells per culture bag: 12.37×10^6 cells per culture bag
[2]; 100 μM Copper-TEPA for first three weeks
  cumulative number of CD34+ cells per culture bag: 32.85×10^6 cells per culture bag
[2]; Cu-TEPA chelate 50 μM
  Number of CD34+ cells (×10^4): 1237.3 ×10^4
  Portion of CD34+ cells (%): 1.4%
[2]; Cu-TEPA chelate 100 μM
  Number of CD34+ cells (×10^4): 3285.3 ×10^4
  Portion of CD34+ cells (%): 1.2%

— patent US20050054097A1, “EX-VIVO expansion of hematopoietic system cell populations in mononuclear cell cultures” (priority 2002, published 2005)
